The source of these data is patent publication EP3417074B1, “ANALYTICAL METHODS AND ARRAYS FOR USE IN THE SAME” (SenzaGen AB, priority 2016, dated 2017).

Counter-ions that a name gives are not always drawn. Like-named read-outs stand apart in the source and are kept apart here.

For data set [1] the following is noted: cited from earlier work; for binary class (HP*): Table 1, based on [41] where available, HP 1-4=S, 5-6=NS, otherwise according to CLP.
Data set [2] deals with MUTZ-3 cells. As to the kind of experiment: GARD random forest model for prediction of CLP categories (52 transcripts, Example A). The following applies: for predicted CLP: Suppl. Table 1, separate replicates in the test set; for GARD predicted CLP: Table 6, independent test set, majority voting across replicates.
In data set [3] the test system is MUTZ-3 cells. The data set can be described thus: GARD binary classification (SVM on GARD prediction signature, 200 transcripts). As to conditions: for GARD binary prediction: Table 1, sensitizer if median calibrated SVM DV of replicates > 0; for SVM DV: Table 8, average SVM decision value derived from triplicates.
Description: The SVM model had been developed for binary classifications (sensitizer versus non-sensitizer).
Data set [4] relates to human skin. The following applies: cited from earlier work; for Human potency [41]: Table 6, test set.
In data set [5] the test system is MUTZ-3 cells. The data set can be described thus: Cytotoxicity / viability by flow cytometry (propidium iodide). The following applies: Table 1, 24 hours exposure.

For the compound `CCCCBr` [1-bromobutane], the binary class entry in data set [1] (Table 4) was “non-sens”. For the same compound, in data set [2], the “predicted CLP” value was “no cat” and the “GARD predicted CLP” value was “no cat”.

Turning to `O=[N+]([O-])c1ccc(F)c([N+](=O)[O-])c1` [2,4-Dinitrofluorobenzene], the “binary class (HP*)” value in data set [1] is recorded as “S”. Also, the binary class result in data set [1] (Table 4) is listed as “sens”. In addition, the GARD binary prediction entry in data set [3] was “S”.

`O=[N+]([O-])c1ccc(Cl)c([N+](=O)[O-])c1` [2,4-dinitrochlorobenzene]: the binary class result in data set [1] (Table 2, benchmark chemicals) is on record as “sens”; in data set [1] (Table 4) it was “sens”. Moreover, the HP in data set [4] is 1. For the same compound, the Human potency in data set [4] is 1. Further, the “SVM DV” value in data set [3] was 6,31.

Turning to `Nc1ccccc1O` [2-aminophenol], in data set [4], the HP is listed as 2 and the Human potency is recorded as 2. Also, in data set [3], the “SVM DV” value was 5,98.

As for `C=CC(=O)OCCO` [2-hydroxyethyl acrylate], the “SVM DV” value in data set [3] was 8,87.

`Sc1nc2ccccc2s1` [2-mercaptobenzothiazole]: the binary class result in data set [1] (Table 4) was “sens”. In addition, the HP in data set [4] (Table 4) is reported as 3. For the same compound, in data set [4] (Table 8), the Human potency is 3. Besides, the “SVM DV” value in data set [3] is listed as 2,52.

For the compound `Cc1cccc(O)c1O` [3-Methylcatechol], in data set [1], the “binary class (HP*)” value is recorded as “S”. In addition, the binary class result in data set [1] (Table 4) is listed as “sens”. Also, in data set [5], the cytotox result is recorded as “yes”. Besides, in data set [3], the GARD binary prediction entry was “S”.

Regarding `O=[N+]([O-])c1ccc(CBr)cc1` [4-nitrobenzylbromide], the binary class result in data set [1] (Table 4) is on record as “sens”.

With `Nc1ccc(C(=O)O)cc1` [PABA], the Human potency in data set [4] is reported as 5. Further, in data set [3], the “SVM DV” value is on record as -1,04.

Consider `CC1(C)S[C@@H]2[C@H](NC(=O)Cc3ccccc3)C(=O)N2[C@H]1C(=O)O` [Penicillin G], for which the Human potency in data set [4] (Table 8) was 3. For the same compound, the “SVM DV” value in data set [3] is 1,06.

As for `CC(O)CO` (centres unmarked) [Propylene glycol], the Human potency in data set [4] (Table 8) is 5. Also, the “SVM DV” value in data set [3] was -1,18.

For `CCCCCCCC/C=C\CCCCCCCC(=O)OCCOCC(OCCO)C1OCC(OCCO)C1OCCO` (centres unmarked) [Tween 80], the binary class entry in data set [1] (Table 4) is “non-sens”. Also, the HP in data set [4] (Table 4) is listed as 6. In addition, the Human potency in data set [4] (Table 8) was 6. Moreover, in data set [3], the “SVM DV” value is listed as -1,39.

Consider `CC(C)C1=CC2=CC[C@@H]3[C@](C)(CCC[C@@]3(C)C(=O)O)[C@H]2CC1` [abietic acid], for which, in data set [1], the “binary class (HP*)” value was “S”. Moreover, the binary class entry in data set [1] (Table 4) is reported as “sens”. Moreover, in data set [5], the cytotox entry is “no”. Further, in data set [4] (Table 4), the HP is 3. The GARD binary prediction entry in data set [3] is “S”.

`CCCCC/C(=C/c1ccccc1)CO` [amylcinnamyl alcohol]: the cytotox entry in data set [5] is listed as “yes”. Also, in data set [4], the HP is on record as 4. The GARD binary prediction result in data set [3] is “S”.

For `O=Cc1ccccc1` [benzaldehyde], the “SVM DV” value in data set [3] was -2,13.

With `CCOC(=O)c1ccc(N)cc1` [benzocaine], the “binary class (HP*)” value in data set [1] is recorded as “S”. The binary class result in data set [1] (Table 4) was “sens”. The cytotox entry in data set [5] was “no”. In addition, in data set [4] (Table 4), the HP was 4. Also, in data set [3] (sensitizing chemicals close to the cut-off defined by benchmark samples), the “binary classification according to the established GARD model” value is listed as “misclassified”.

Turning to `OCc1ccccc1` [benzyl alcohol], the binary class entry in data set [1] (Table 4) is on record as “non-sens”. In data set [5], the cytotox entry is given as “no”.

For the compound `Clc1ccccc1` [chlorobenzene], in data set [4], the HP is reported as 6 and the Human potency is 6. Further, the “SVM DV” value in data set [3] is given as -1,63.

On to `O=CC=Cc1ccccc1` [cinnamaldehyde], for which the HP in data set [4] is 2.

With `OCC=Cc1ccccc1` [cinnamyl alcohol], in data set [1] (Table 4), the binary class entry is given as “sens”. The HP in data set [4] (Table 4) is recorded as 3. For the same compound, the Human potency in data set [4] (Table 8) is given as 3. Further, the “SVM DV” value in data set [3] is listed as 2,94.

Consider `O=C(O)CC(O)(CC(=O)O)C(=O)O` [citric acid], for which the cytotox result in data set [5] was “no”.

`OCCNCCO` [diethanolamine]: in data set [1] (Table 4), the binary class result is given as “sens”. Further, the cytotox entry in data set [5] was “no”. Also, the HP in data set [4] is 5.

For the compound `CCOC(=O)/C=C\C(=O)OCC` [diethyl maleate], the binary class result in data set [1] (Table 4) is “sens”. Besides, in data set [2], the “predicted CLP” value is 1A and the “GARD predicted CLP” value is given as 1A. In data set [2] (test set, majority votes), the “CLP category predicted by the random forest model” value is recorded as 1A. For the same compound, the human potency category in data set [4] (Basketter et al. [41]) was 2. In addition, the HP in data set [4] (Table 4) is reported as 2. The “Human potency [41]” value in data set [4] is 2.

`CCOC(=O)c1ccccc1C(=O)OCC` [diethyl phthalate]: the binary class entry in data set [1] (Table 4) is “non-sens”. For the same compound, in data set [2], the “predicted CLP” value is “no cat” and the “GARD predicted CLP” value is on record as “no cat”. Further, in data set [4], the “Human potency [41]” value is on record as 6, the HP was 6 and the Human potency is recorded as 6. In addition, the “SVM DV” value in data set [3] is -2,15.

For `O=c1c(-c2ccccc2)c1-c1ccccc1` [diphenylcyclopropenone], the binary class entry in data set [1] (Table 4) is recorded as “sens”. Also, the HP in data set [4] (Table 4) is 1.

`NCCN` [ethylenediamine]: in data set [3], the “SVM DV” value was 1,12.

Take `CC(C)=CCC/C(C)=C/CO` [geraniol]: in data set [3], the “SVM DV” value is reported as 1,76.

For `OCC(O)CO` [glycerol], in data set [4] (Table 4), the HP is 6. Further, the Human potency in data set [4] (Table 8) is 6. Moreover, the “SVM DV” value in data set [3] is recorded as -2,05.

On to `O=CC=O` [glyoxal], for which, in data set [4], the HP is reported as 2 and the Human potency is reported as 2. The “SVM DV” value in data set [3] is 1,08.

`CCCCCC` [hexane]: the binary class entry in data set [1] (Table 4) is given as “non-sens”. Besides, in data set [4] (Table 4), the HP was 6.

For `CCCCCCC(C=O)=Cc1ccccc1` [hexylcinnamic aldehyde], the binary class result is given as “sens” in data set [1] (Table 2, benchmark chemicals) and “sens” in data set [1] (Table 4). In addition, the HP in data set [4] (Table 2, benchmark chemicals) is 5; in data set [4] (Table 4), 5. In data set [4] (Table 8), the Human potency is on record as 5. Also, the “SVM DV” value in data set [3] is listed as 1,24.

Take `Oc1ccc(O)cc1` [hydroquinone]: the binary class entry in data set [1] (Table 4) is “sens”. Moreover, the HP in data set [4] (Table 4) was 3.

Consider `CC(CC=O)CCCC(C)(C)O` (centres unmarked) [hydroxycitronellal], for which the binary class result in data set [1] (Table 4) is “sens”. In addition, the HP in data set [4] (Table 4) is listed as 4.

Turning to `CC=Cc1ccc(O)c(OC)c1` [isoeugenol], the binary class entry in data set [1] (Table 4) was “sens”. Moreover, the HP in data set [4] (Table 4) is 2. The Human potency in data set [4] (Table 8) is on record as 2. For the same compound, the “SVM DV” value in data set [3] was 1,91.

For the compound `CC(C)O` [isopropanol], the binary class entry in data set [1] (Table 4) is “non-sens”. The HP in data set [4] (Table 4) is reported as 5. Also, in data set [4] (Table 8), the Human potency is reported as 5. Moreover, the “SVM DV” value in data set [3] was -1,37.

As for `CCCCCCCCCCCCCC(=O)OC(C)C` [isopropyl myristate], the binary class result in data set [1] (Table 4) is given as “sens”. Besides, in data set [5], the cytotox result is given as “no”. In addition, the HP in data set [4] (Table 4) is recorded as 5.

With `CC(O)C(=O)O` (centres unmarked) [lactic acid], in data set [4], the HP is 6 and the Human potency is recorded as 6. Moreover, in data set [3], the “SVM DV” value is reported as -2,38.

In the case of `CCCCCCCCCCCCOC(=O)c1cc(O)c(O)c(O)c1` [lauryl gallate], the binary class result in data set [1] (Table 4) is listed as “sens”. Also, the HP in data set [4] (Table 4) is 2.

As for `COC(=O)c1ccccc1O` [methyl salicylate], the binary class result in data set [1] (Table 4) is on record as “non-sens”. Besides, the HP in data set [4] (Table 4) was 5. For the same compound, the Human potency in data set [4] (Table 8) is on record as 5. Moreover, the “SVM DV” value in data set [3] was -1,53.

As for `N#CCCC(Br)(C#N)CBr` (centres unmarked) [methyldibromo glutaronitrile], in data set [1] (Table 4), the binary class entry was “sens”. The HP in data set [4] (Table 4) was 2.

Take `CCCCCCCC(=O)O` [octanoic acid]: the binary class result in data set [1] (Table 4) is “non-sens”. Also, the Human potency in data set [4] (Table 8) is recorded as 6. Moreover, the HP in data set [4] was 6. Further, the “SVM DV” value in data set [3] is reported as -1,19.

Regarding `O=C(O)c1ccc(O)cc1` [p-hydroxybenzoic acid], the binary class entry in data set [1] (Table 4) is “non-sens”.

Consider `Nc1ccc(N)cc1` [p-phenylenediamine], for which the binary class result is “sens” in data set [1] (Table 2, benchmark chemicals) and “sens” in data set [1] (Table 4). In data set [4] (Table 8), the Human potency is given as 1. For the same compound, the HP in data set [4] is given as 1. Also, the “SVM DV” value in data set [3] is listed as 5,32.

With `Oc1c(Cl)c(Cl)c(Cl)c(Cl)c1Cl` [pentachlorophenol], the binary class entry in data set [1] (Table 4) was “sens”. Further, the cytotox result in data set [5] is listed as “no”. For the same compound, in data set [4], the HP was 5.

As for `O=CCc1ccccc1` [phenyl acetaldehyde], the binary class entry in data set [1] (Table 4) is on record as “sens”.

As to `O=C(Oc1ccccc1)c1ccccc1` [phenyl benzoate], the binary class result in data set [1] (Table 4) is recorded as “sens”. The HP in data set [4] (Table 4) was 3.

On to `[K+].[K+].[O]=[Cr](=[O])([O-])[O][Cr](=[O])(=[O])[O-]` [potassium dichromate], for which, in data set [1] (Table 4), the binary class entry was “sens”. In addition, the HP in data set [4] (Table 4) is 1. Also, the Human potency in data set [4] (Table 8) is reported as 1. In data set [3], the “SVM DV” value is given as 8,45.

Turning to `Oc1cccc(O)c1` [resorcinol], the HP in data set [4] (Table 2, benchmark chemicals) is 4; in data set [4] (Table 4), 4. Besides, in data set [4] (Table 8), the Human potency was 4. Also, the “SVM DV” value in data set [3] is 1,03.

In the case of `O=C(O)c1ccccc1O` [salicylic acid], in data set [4], the HP was 6 and the Human potency is listed as 6. Further, the “SVM DV” value in data set [3] is -1,41.

For the compound `O=C(O)C(O)C(O)C(=O)O` (centres unmarked) [tartaric acid], in data set [5], the cytotox result is reported as “no”.

For the compound `CN(C)C(=S)SSC(=S)N(C)C` [tetramethylthiuram disulfide], the HP in data set [4] was 3.

chloroanilin: the binary class entry in data set [1] (Table 4) was “sens”.

On to xylene, for which the HP in data set [4] (Table 4) is 6. Also, in data set [4], the “Human potency [41]” value is on record as 6.
